# Patent US8389523B2, “Substituted quinoxaline and an agrochemical composition thereof” (Kumiai Chemical Industry Co., Ltd., priority 2007, dated 2013)
# Key:
# Format in all cases: in vivo
# Parameters in all cases: scale not given here
# [1] = tested on: Echinochloa oryzicola Vasing; test: Herbicidal effects in paddy field soil treatment (Test Example 1); conditions: for Herbicidal effects index, Echinochloa oryzicola Vasing: paddy field soil treatment, 1000 g of the active ingredient per hectare, wettable powder added dropwise on water surface, 21st day after treatment; for herbicidal effect (index) on Echinochloa oryzicola Vasing: paddy field soil treatment (Test Example 1), criteria of Table 138
# Summary of the method: (§1)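 Seeds sown in puddled paddy soil, waterlogged to 3 cm depth; next day a diluted wettable powder applied dropwise to the water surface at 1000 g active ingredient per hectare. Herbicidal effect scored 21 days after treatment in a greenhouse.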
# [2] = tested on: Monochoria vaginalis (Burm. f.) Presl var. plantaginea (Roxb.) Solms-Laub.; test: as above; conditions: for Herbicidal effects index, Monochoria vaginalis (Burm. f.) Presl var. plantaginea (Roxb.) Solms-Laub.: paddy field soil treatment, 1000 g of the active ingredient per hectare, wettable powder added dropwise on water surface, 21st day after treatment; for herbicidal effect (index) on Monochoria vaginalis (Burm. f.) Presl var. plantaginea (Roxb.) Solms-Laub.: paddy field soil treatment (Test Example 1), criteria of Table 138
# Summary of the method: as §1
# [3] = tested on: Scirpus juncoides Roxb. var. ohwianus. T. Koyama; test: as above; conditions: for Herbicidal effects index, Scirpus juncoides Roxb. var. ohwianus. T. Koyama: paddy field soil treatment, 1000 g of the active ingredient per hectare, wettable powder added dropwise on water surface, 21st day after treatment; for herbicidal effect (index) on Scirpus juncoides Roxb. var. ohwianus. T. Koyama: paddy field soil treatment (Test Example 1), criteria of Table 138
# Summary of the method: as §1
# [4] = tested on: Abutilon theophrasti medicus; test: Herbicidal effects in upland field foliar treatment (Test Example 3); conditions: criteria of Table 138; for herbicidal effect (index) on Abutilon theophrasti medicus: 1000 g active ingredient per hectare, 14th day after treatment; for herbicidal effects on Abutilon theophrasti medicus: 1000 g of the active ingredient per hectare, 14th day after the treatment, wettable powder
# Summary of the method: (§2)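 Plants grown two weeks from seed in upland soil in a greenhouse, then sprayed overall with water-diluted wettable powder at 1000 L/ha delivering 1000 g active ingredient/ha. Herbicidal effect scored by rating criteria 14 days after treatment.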
# Amaranthus viridis L. [5] = test: as above; conditions: criteria of Table 138; for herbicidal effect (index) on Amaranthus viridis L.: 1000 g active ingredient per hectare, 14th day after treatment; for herbicidal effects on Amaranthus viridis L.: 1000 g of the active ingredient per hectare, 14th day after the treatment, wettable powder
# Summary of the method: as §2
# [6] = tested on: Echinochloa crus-galli (L.) P. Beauv. var. crus-galli; test: as above; conditions: criteria of Table 138; for herbicidal effect (index) on Echinochloa crus-galli (L.) P. Beauv. var. crus-galli: 1000 g active ingredient per hectare, 14th day after treatment; for herbicidal effects on Echinochloa crus-galli (L.) P. Beauv. var. crus-galli: 1000 g of the active ingredient per hectare, 14th day after the treatment, wettable powder
# Summary of the method: as §2
# [7] = tested on: Abutilon theophrasti medicus; test: Herbicidal effects in upland field soil treatment (Test Example 2); conditions: 1000 g active ingredient per hectare, 21st day after treatment, criteria of Table 138
# Summary of the method: (§3)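 Pre-emergence test: seeds sown in upland soil, then soil surface sprayed with diluted wettable powder at 1000 g active ingredient per hectare (1000 liters per hectare). Greenhouse growth; herbicidal effect scored on day 21 against set criteria.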
# Amaranthus viridis L. [8] = test: as above; conditions: 1000 g active ingredient per hectare, 21st day after treatment, criteria of Table 138
# Summary of the method: as §3
SMILES,"Herbicidal effects index, Echinochloa oryzicola Vasing [1]","Herbicidal effects index, Monochoria vaginalis (Burm. f.) Presl var. plantaginea (Roxb.) Solms-Laub. [2]","Herbicidal effects index, Scirpus juncoides Roxb. var. ohwianus. T. Koyama [3]",herbicidal effect (index) on Abutilon theophrasti medicus [4],herbicidal effect (index) on Amaranthus viridis L. (Amaranthus viridis L. [5]),herbicidal effect (index) on Echinochloa crus-galli (L.) P. Beauv. var. crus-galli [6],herbicidal effect (index) on Abutilon theophrasti medicus [7],herbicidal effect (index) on Amaranthus viridis L. (Amaranthus viridis L. [8]),herbicidal effect (index) on Echinochloa oryzicola Vasing [1],herbicidal effect (index) on Monochoria vaginalis (Burm. f.) Presl var. plantaginea (Roxb.) Solms-Laub. [2],herbicidal effect (index) on Scirpus juncoides Roxb. var. ohwianus. T. Koyama [3],herbicidal effects on Abutilon theophrasti medicus [4],herbicidal effects on Amaranthus viridis L. (Amaranthus viridis L. [5]),herbicidal effects on Echinochloa crus-galli (L.) P. Beauv. var. crus-galli [6]
Cc1cc(-n2c(=O)c(C(=O)C3=C(O)C(C)(C)C(=O)C(C)(C)C3=O)nc3ccccc32)no1 [I-149],5,5,4,5,5,5,5,5,,,,,,
O=C1CCCC(O)=C1C(=O)c1nc2cccnc2n(-c2cccc(OC(F)F)c2)c1=O [IV-90],,,,,,,5,5,5,5,5,5,5,5
Cn1c(=O)c(C(=O)C2=C(O)CCCC2=O)nc2cc(Cl)ccc21 [I-225],5,5,4,5,5,4,5,5,,,,,,
COc1ccc2nc(C(=O)C3=C(O)CCCC3=O)c(=O)n(-c3ccc(F)cc3)c2c1 [II-304],5,5,5,,,,5,5,,,,5,5,4
O=C1CCCC(O)=C1C(=O)c1nc2cccnc2n(COCC(F)(F)F)c1=O [III-59],5,5,5,,,,5,5,,,,5,5,5
O=C1CCCC(O)=C1C(=O)c1nc2cccnc2n(-c2ccccc2OC(F)F)c1=O [IV-85],,,,,,,5,5,5,5,5,5,5,5
COc1cc(-n2c(=O)c(C(=O)C3=C(O)CCCC3=O)nc3cc(F)ccc32)cc(OC)c1OC [II-238],5,5,5,,,,5,5,,,,5,5,5
O=C1CCCC(O)=C1C(=O)c1nc2cc(F)ccc2n(-c2ccc3c(c2)OCO3)c1=O [II-239],5,5,5,,,,5,5,,,,5,5,4
CC(C)c1ccc(-n2c(=O)c(C(=O)C3=C(O)CCCC3=O)nc3cccnc32)cc1 [IV-30],5,5,5,,,,4,5,,,,4,5,5
O=C1CCCC(O)=C1C(=O)c1nc2ccccc2n(-c2ccccc2Cl)c1=O [II-9],5,5,5,5,5,5,5,4,,,,,,
CCCCn1c(=O)c(C(=O)C2=C(O)CCCC2=O)nc2c(Cl)cccc21 [I-364],4,5,5,5,5,5,5,5,,,,,,
CC(C)Oc1ccc(-n2c(=O)c(C(=O)C3=C(O)CCCC3=O)nc3ccccc32)cc1 [II-75],5,5,5,,,,4,5,,,,4,5,5
O=C1CCCC(O)=C1C(=O)c1nc2cccnc2n(Cc2ccccc2)c1=O [III-107],5,5,5,,,,4,5,,,,5,5,4
Cn1nc(-n2c(=O)c(C(=O)C3=C(O)CCCC3=O)nc3ccccc32)cc1C(F)(F)F [I-267],5,5,5,5,5,5,5,5,,,,,,
CCc1cccc(-n2c(=O)c(C(=O)C3=C(O)CCCC3=O)nc3cccnc32)c1 [IV-23],5,5,5,,,,5,5,,,,4,5,5
COCCOCn1c(=O)c(C(=O)C2=C(O)CCCC2=O)nc2ccccc21 [I-58],5,5,5,5,5,5,5,5,,,,,,
Cc1ccc(-n2c(=O)c(C(=O)C3=C(O)CCCC3=O)nc3ccccc32)cc1F [II-213],5,5,5,,,,5,5,,,,5,5,4
Cc1cc(-n2c(=O)c(C(=O)C3=C(O)CCCC3=O)nc3ccccc32)nn1C [I-266],5,5,5,5,5,5,5,5,,,,,,
